In patent US20240082234A1, “APPLICATION OF CILOSTAZOL-CONTAINING COMPOSITION IN PREPARING DRUG FOR TREATING CEREBROVASCULAR DISEASE” (NEURODAWN PHARMACEUTICAL CO., LTD., priority 2021, published 2024):

What was measured:
[1] = system: mice with focal cerebral ischemia-reperfusion injury; assay: mouse focal cerebral ischemia-reperfusion model (internal carotid artery suture method), area of cerebral infarction by TTC staining; format: in vivo, C57BL/6J mice; settings: summary; intravenous; cilostazol 10-19.46 mg/kg, (+)-2-borneol 0.54-10 mg/kg
Method: The animals were subjected to evaluation of neurological deficit symptoms and then sacrificed with CO2. The brain was taken out by cutting off head. The olfactory bulb, cerebellum and lower brainstem were removed. The blood on the surface of the brain was washed with normal saline, and the residual water on the surface was removed. The brain was placed at −20° C. for 20 min, then taken out, immediately cut to a coronal section vertically downward at the crossing plane of the line of sight, and sliced backward every 2 mm. The brain slices were incubated in 1% TTC staining solution (at 37° C. for 30 min). The normal brain tissue was stained into dark red, and the ischemic brain tissue was stained into pale white. After being washed with normal saline, the brain slices were quickly arranged in a row from front to back, removed off the residual water on the surface, and photographed. Calculation of area of cerebral infarction: The photos were processed by Image J software, and the corresponding area of left brain and non-infarction area of right brain were calculated according to the formula, so that the percentage of the area of infarction was calculated. The experimental animals were divided into 4 groups, a model group and three groups of compositions of cilostazol/(+)-2-borneol (respectively a group of cilostazol 10 mg/kg+(+)-2-borneol 10 mg/kg in 1:1: a group of cilostazol 15 mg/kg+(+)-2-borneol 5 mg/kg in 3:1; a group of cilostazol 18 mg/kg+(+)-2-borneol 2 mg/kg in 9:1, and each composition was administered at a total amount of 20 mg/kg). After the cerebral ischemia model was established, the animals were assigned to each group in a single-blind manner with equal probability. After reperfusion, the animals were immediately administered intravenously with the drugs once. The animals in the model group were administered with an equal volume of normal saline. The animals were sacrificed 24 hours after cerebral ischemia, and their brains were taken out, stained, and photographed for determining the area of cerebral infarction. Establishment of focal cerebral ischemia-reperfusion model: The mouse focal cerebral ischemia-reperfusion model was established by internal carotid artery suture method. An anesthetized mouse was fixed on an operating table in a supine position. The neck of the mice was cut at the midline, and the subcutaneous tissue was bluntly separated. The right common carotid artery, external carotid artery, and internal carotid artery were separated. […]

plasma protein = settings: background statement; cited from earlier work
[2] = system: rats with focal cerebral ischemia-reperfusion injury; assay: rat focal cerebral ischemia-reperfusion model (internal carotid artery suture method), area of cerebral infarction by TTC staining; format: in vivo, Sprague-Dawley (SD) rats; settings: for Area of cerebral infarction (%): single i.v. dose after reperfusion, 24 h after ischemia, (+)-2-borneol 1 mg/kg; for area of cerebral infarction of MCAO rats (in words) / neurological deficits of MCAO rats (in words): summary, tail vein, cilostazol 1-18 mg/kg, (+)-2-borneol 0.27-5 mg/kg
Method: After the cerebral ischemia model was established, the animals were assigned to each group in a single-blind manner with equal probability. After reperfusion, the animals were immediately administered intravenously with the drugs once. The animals in the model group were administered with an equal volume of normal saline. The animals were sacrificed 24 hours after cerebral ischemia, and their brains were taken out, stained, and photographed for determining the area of cerebral infarction. The rat focal cerebral ischemia-reperfusion model was established by internal carotid artery suture method. The limbs (hind limbs above the knee joint and forelimbs below the wrist joint) and head of an anesthetized rat were tightened with rubber bands. The animal was fixed on an operating table in supine position, and was shaved with an animal shaver from the head to the chest, and the skin was disinfected with alcohol. The neck of the rat was cut at the midline, and the subcutaneous tissue was bluntly separated. The thin layer of fascia on the surface of the anterior triangle of the neck was separated, the lower side-lower edge of the clavicular hyoid muscle was pulled up, and the longitudinally pulsating artery parallel to this muscle can be seen. The arterial shell was opened, and the bifurcation of the right carotid artery was exposed. The right common carotid artery, external carotid artery and internal carotid artery were separated. The vagus nerve was gently stripped, and the external carotid artery was ligated and cut. The proximal end of the common carotid artery was clamped. An incision was made at the distal end from the ligature of the external carotid artery, and was inserted with a suture line, which was passed through the bifurcation of the common carotid artery into the internal carotid artery, and then was inserted slowly until reaching slight resistance (approximately 20 mm from the bifurcation), so as to block all blood supply to the middle cerebral artery. The suture line was slightly fixed below the incision of the external carotid artery with silk thread. The silk thread clamping the proximal end of the common carotid artery was loosened. A gauze soaked in sterile saline was covered on the wound, and the rat was placed on a heat preservation pad to keep warm. 2.0 h after cerebral ischemia on the right side, the suture line was pulled out gently to restore the blood supply for reperfusion. The external carotid artery was ligated with silk thread fixing the suture line. The skin was stitched, and disinfected. The rats were placed in clean feed, and their general condition and respiration were observed until they woke up from anesthesia. The rats were provided with food and water, and commonly reared. The animals were subjected to evaluation of neurological deficit symptoms and then sacrificed with CO2. The brain was taken out by cutting off head. The olfactory bulb, cerebellum and lower brainstem were removed. The blood on the surface of the brain was washed with normal saline, and the residual water on the surface was removed. The brain was placed at -20° C. for 20 min, then taken out, immediately cut to a coronal section vertically downward at the crossing plane of the line of sight, and sliced backward every 2 mm. The brain slices were incubated in 1% TTC staining solution (at 37° C. for 30 min). The normal brain tissue was stained into dark red, and the ischemic brain tissue was stained into pale white. After being washed with normal saline, the brain slices were quickly arranged in a row from front to back, removed off the residual water on the surface, and photographed. Calculation of area of cerebral infarction: The photos were processed by Image J software, and the corresponding area of left brain and non-infarction area of right brain were calculated according to the formula, so that the percentage of the area of infarction was calculated. […]

[3] = Example 1, cilostazol 1 mg/kg (p=0.06), (+)-2-borneol 1 mg/kg (p<0.01), composition 1+1 mg/kg (p<0.001), vs model group
[4] = Example 1, cilostazol 1 mg/kg, composition 2 mg/kg (1+1), model group 39.73 ± 7.62
[5] = Example 2, cilostazol 9 mg/kg (p=0.024), (+)-2-borneol 1 mg/kg (p=0.017), composition 9+1 mg/kg (p=0.000)
[6] = Example 2, cilostazol 9 mg/kg, composition 10 mg/kg (9+1), model group 38.25 ± 7.87
[7] = Example 3, cilostazol 18 mg/kg (p=0.001), (+)-2-borneol 1 mg/kg (p=0.002), composition 18+1 mg/kg (p=0.000)
[8] = Example 3, cilostazol 18 mg/kg, composition 19 mg/kg (18+1), model group 40.32 ± 7.65

SMILES | area of cerebral infarction in MCAO mice (in words) [1] | neurological deficits in MCAO mice (in words) [1] | binding rate to plasma protein (plasma protein) | effect on the area of cerebral infarction (in words) [2, 3] | Area of cerebral infarction (%) [2, 4] | effect on the area of cerebral infarction (in words) [2, 5] | Area of cerebral infarction (%) [2, 6] | effect on the area of cerebral infarction (in words) [2, 7] | Area of cerebral infarction (%) [2, 8] | area of cerebral infarction of MCAO rats (in words) [2] | neurological deficits of MCAO rats (in words) [2]
O=C1CCc2cc(OCCCCc3nnnn3C3CCCCC3)ccc2N1 [Cilostazol] | reduce the area of cerebral infarction | significantly ameliorate the neurological deficits | about 95% | tended to alleviate cerebral ischemic injury, but showed no statistical difference | 33.78 ± 5.74% | significantly reduce the area of cerebral infarction | 30.00 ± 8.43 % | significantly reduce the area of cerebral infarction | 27.84 ± 7.50 % | reduce the area of cerebral infarction | significantly ameliorate the neurological deficits
CC1(C)C2CCC1(C)C(O)C2 (single isomer, unassigned; (+)) [(+)-2-Borneol] | reduce the area of cerebral infarction | significantly ameliorate the neurological deficits |  | significantly reduce the area of cerebral infarction | 28.28 ± 8.06 % | significantly reduce the area of cerebral infarction | 28.62 ± 9.87 % | significantly reduce the area of cerebral infarction | 29.97 ± 7.02 % | reduce the area of cerebral infarction | significantly ameliorate the neurological deficits
